The IC50 is the point on the concentration scale where inhibition reaches its midpoint.

This test deals with T1, angiotensin-converting enzyme (ACE) (Oryctolagus cuniculus, UniProt P12822).
T1 construct: enzyme solution prepared from rabbit lung acetone powder; tissue Sigma Chemical Co., Ltd., U.S.A; host or cells: rabbit lung (acetone powder)
T1 sequence (P12822 34-1310): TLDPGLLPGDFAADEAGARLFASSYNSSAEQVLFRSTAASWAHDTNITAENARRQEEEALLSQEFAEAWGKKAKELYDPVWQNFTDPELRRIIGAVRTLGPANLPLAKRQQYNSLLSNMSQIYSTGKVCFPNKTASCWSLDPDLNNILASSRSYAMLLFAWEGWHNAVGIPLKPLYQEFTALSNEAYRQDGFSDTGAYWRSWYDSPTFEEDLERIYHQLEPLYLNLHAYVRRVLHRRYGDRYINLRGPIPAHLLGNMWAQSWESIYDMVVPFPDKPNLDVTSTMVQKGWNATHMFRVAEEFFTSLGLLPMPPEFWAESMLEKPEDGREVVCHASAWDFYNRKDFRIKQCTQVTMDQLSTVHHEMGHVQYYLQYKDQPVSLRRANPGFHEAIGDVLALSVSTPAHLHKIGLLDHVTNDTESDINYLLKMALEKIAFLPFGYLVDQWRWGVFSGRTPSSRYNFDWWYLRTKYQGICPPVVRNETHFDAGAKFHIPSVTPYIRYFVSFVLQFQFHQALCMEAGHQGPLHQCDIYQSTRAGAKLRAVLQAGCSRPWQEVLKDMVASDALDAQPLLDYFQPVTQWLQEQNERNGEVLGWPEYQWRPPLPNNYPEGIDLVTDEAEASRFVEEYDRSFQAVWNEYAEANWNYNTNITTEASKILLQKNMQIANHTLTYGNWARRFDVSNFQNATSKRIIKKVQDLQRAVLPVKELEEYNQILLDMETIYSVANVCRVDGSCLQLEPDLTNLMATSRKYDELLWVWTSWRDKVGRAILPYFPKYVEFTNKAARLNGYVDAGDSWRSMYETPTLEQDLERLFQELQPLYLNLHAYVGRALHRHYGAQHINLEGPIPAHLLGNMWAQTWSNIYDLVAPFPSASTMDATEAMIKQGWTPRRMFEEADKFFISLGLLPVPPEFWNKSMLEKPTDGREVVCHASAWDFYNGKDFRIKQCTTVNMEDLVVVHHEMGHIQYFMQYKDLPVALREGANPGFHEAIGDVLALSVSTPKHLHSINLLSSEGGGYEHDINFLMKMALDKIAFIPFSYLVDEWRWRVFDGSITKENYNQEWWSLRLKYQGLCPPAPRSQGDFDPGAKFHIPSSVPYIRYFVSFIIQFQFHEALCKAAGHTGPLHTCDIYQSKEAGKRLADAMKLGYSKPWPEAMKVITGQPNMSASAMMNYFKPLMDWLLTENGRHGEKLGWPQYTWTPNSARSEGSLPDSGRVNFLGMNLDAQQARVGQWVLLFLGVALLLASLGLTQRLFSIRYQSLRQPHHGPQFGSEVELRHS
Description: Inhibitory activity against angiotensin-converting enzyme (ACE). Format: biochemical. The note with it: enzyme from rabbit lung acetone powder; substrate hippuryl-histidyl-leucine; 37° C.; preincubation 10 minutes, reaction 45 minutes. Here is the method: A 100 μl quantity of an enzyme solution prepared from rabbit lung acetone powder (product of Sigma Chemical Co., Ltd., U.S.A.) was mixed with 100 μl of a sample solution. The mixture was gently shaken at 37° C. for 10 minutes. To the reaction mixture was added 100 μl of a solution containing 6.69 mM of hippuryl-histidyl-lecuine (product of Peptide Institute, Inc., Japan) as a substrate. The mixture was reacted at 37° C. for 45 minutes while being shaken. The reaction was terminated by addition of 200 μl of a 1N sulfuric acid to the reaction mixture. Sodium chloride (saturation amount) and diethyl ether (2 ml) were added to the reaction mixture to extract the hippuric acid formed by the reaction. The resulting mixture was vigorously shaken for 15 minutes and centrifuged at 2000 r.p.m. for 5 minutes. A 1.5 ml quantity of the ether layer was separated. After the solvent was distilled off, the residue was redissolved in 1.5 ml of distilled water and the absorbance of 228 nm was measured. A control was prepared by repeating the same procedure as above except that […] of distilled water was used in place of the sample solution.
The inhibitory activity was calculated by deducting the absorbance value of the residue formed by addition of the sample solution from that of the control and the resulting value was divided by the absorbance value of the control and multipled by 100, thereby giving a percent inhibition. The inhibitory activity was expressed as IC50, i.e., the concentration of the same sample solution in the reaction mixture in which concentration 50% inhibition is achieved.
`CC(N[C@@H](CSCC(=O)N1CCCCC1)C(=O)O)C(=O)N1CCC[C@H]1C(=O)O` (stereo partly drawn) [Compound 6] displayed a 50% inhibitory concentration (IC50) of 443 nM.

`CC(N[C@@H](CSCC(=O)NC1CCCC1)C(=O)O)C(=O)N1CCC[C@H]1C(=O)O` (stereo partly drawn) [Compound 4] came in with an IC50 of 61.1 nM. Against the preceding compound, the IC50 is about 7.3-fold lower.

Regarding `CC(N[C@@H](CSCC(=O)NCc1ccccc1)C(=O)O)C(=O)N1CCC[C@H]1C(=O)O` (stereo partly drawn) [Compound 5], it took 342 nM to reach half-maximal inhibition (IC50).

`CC(N[C@@H](CSC1Cc2ccccc2C1)C(=O)O)C(=O)N1CCC[C@H]1C(=O)O` (stereo partly drawn) [Compound 2] showed a half-inhibitory concentration (IC50) of 0.687 nM.

As for `CCCCCCCSC[C@H](NC(C)C(=O)N1CCC[C@H]1C(=O)NC(C(=O)O)C(C)C)C(=O)O` (stereo partly drawn) [Compound 9], the IC50 turned out to be 33.5 nM.

`CC(N[C@@H](CSC1(C)CCCCC1)C(=O)O)C(=O)N1CCC[C@H]1C(=O)O` (stereo partly drawn) displayed a concentration for half-maximal inhibition (IC50) of 5.21 nM.

Turning to `CC(N[C@@H](CSC1CCCC1)C(=O)O)C(=O)N1CCC[C@H]1C(=O)O` (stereo partly drawn) [Compound 3], the IC50 came out at 1.02 nM.

In turn, `CCCCCCCSC[C@H](NC(C)C(=O)N1CCC[C@H]1C(=O)NC(C)C(=O)O)C(=O)O` (stereo partly drawn) [Compound 8] registered a concentration for half-maximal inhibition (IC50) of 56.3 nM.

For the compound `CCCCCCCSC[C@H](NC(C)C(=O)N1CCC[C@H]1C(=O)NC(Cc1ccccc1)C(=O)O)C(=O)O` (stereo partly drawn) [Compound 7], the 50% inhibitory concentration (IC50) turned out to be 24.1 nM. This IC50 lies about 2.3-fold lower than the previous one.

These data come from patent publication US4886813A, “Proline derivatives” (Otsuka Pharmaceutical Factory, Inc., priority 1985, dated 1989).
